Results as given in patent publication US12454529B2, “Piperazine cyclic ureas” (SIRONAX LTD., priority 2020, dated 2025).

Each compound was assayed on HT-29 cells (assay: HT-29 cell necrosis/necroptosis inhibition (TNF-α + SMAC mimetic + zVAD-FMK; CellTiter-Glo cell viability)). Details: Homo sapiens, HT-29, 20 h, read-out: EC50 (Cell activity; Necrosis/Necroptosis Inhibitory Activity, Compounds 1-142).
Type: cell-based
How it was run: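 HT-29 cells (~5,000/well) were switched to FBS-free McCOY's 5A holding TNF-α (10 ng/ml), SMAC mimetic (6 μM) and zVAD-FMK (10 μM), then dosed with a 10-point 1:3 series for 20 h at 37 °C. CellTiter-Glo luminescence gave viability; geometric mean EC50 from duplicates.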

Question: For CC(=O)Nc1c(C)nn(-c2nc(N3CCN(C(=O)N4N=CC[C@H]4c4cc(F)cc(C#N)c4)CC3)ncc2F)c1C [Compound 142, (S)—N-(1-(2-(4-(5-(3-cyano-5-fluorophenyl)-4,5-dihydro-1H-pyrazole-1-carbonyl)piperazin-1-yl)-5-fluoropyrimidin-4-yl)-3,5-dimethyl-1H-pyrazol-4-yl)acetamide], which EC50 is on record?
Answer: 0.1 to 100 nM

Question: For Cc1nnnn1-c1ccnc(N2CCN(C(=O)N3N=CC[C@H]3c3cncc(F)c3)CC2)n1 [Compound 26, (S)-(5-(5-fluoropyridin-3-yl)-4,5-dihydro-1H-pyrazol-1-yl)(4-(4-(5-methyl-1H-tetrazol-1-yl)pyrimidin-2-yl)piperazin-1-yl)methanone], which EC50 is on record?
Answer: 0.1 to 100 nM

Same assay, conditions: Homo sapiens; HT-29 cells, TNF-α 10 ng/ml + SMAC mimetic 6 μM + zVAD-FMK 10 μM, 20 hours; geometric mean, 10 points in duplicate; read-out: EC50 (Cell activity; Necrosis/Necroptosis Inhibitory Activity, Compounds 1-142)

Question: With O=C(N1CCN(c2ccnc(-c3ccc[nH]3)n2)CC1)N1N=CC[C@H]1c1cc(F)cc(F)c1 [Compound 5, (S)-(4-(2-(1H-pyrrol-2-yl)pyrimidin-4-yl)piperazin-1-yl)(5-(3,5-difluorophenyl)-4,5-dihydro-1H-pyrazol-1-yl)methanone] as the compound, how does the EC50 read?
Answer: 0.1 to 100 nM

Question: For O=C(N1CCN(c2nccc(-c3cc[nH]n3)n2)CC1)N1N=CC[C@H]1c1cncc(F)c1 [Compound 36, (S)-(4-(4-(1H-pyrazol-3-yl)pyrimidin-2-yl)piperazin-1-yl)(5-(5-fluoropyridin-3-yl)-4,5-dihydro-1H-pyrazol-1-yl)methanone], which EC50 is on record?
Answer: 0.1 to 100 nM

Question: For Cc1nn(-c2nc(N3CCN(C(=O)N4N=CC[C@H]4c4cc(F)cc(C#N)c4)CC3)ncc2F)c(=O)n1C [Compound 96, (S)-3-(1-(4-(4-(3,4-dimethyl-5-oxo-4,5-dihydro-1H-1,2,4-triazol-1-yl)-5-fluoropyrimidin-2-yl)piperazine-1-carbonyl)-4,5-dihydro-1H-pyrazol-5-yl)-5-fluorobenzonitrile], which EC50 is on record?
Answer: 0.1 to 100 nM

Question: Cc1cc(-c2nc(N3CCN(C(=O)N4N=CC[C@H]4c4cncc(F)c4)CC3)ncc2F)n(C)n1 [Compound 86, (S)-(4-(4-(1,3-dimethyl-1H-pyrazol-5-yl)-5-fluoropyrimidinyl)piperazin-1-yl)(5-(5-fluoropyridin-3-yl)-4,5-dihydro-1H-pyrazol-1-yl)methanone] was tested. Which EC50 did it give?
Answer: 0.1 to 100 nM

Question: Which EC50 does the source give for COCCn1nc(C)c(-c2nc(N3CCN(C(=O)N4N=CC[C@H]4c4cc(F)cc(F)c4)CC3)ncc2F)c1C [Compound 120, (S)-(5-(3,5-difluorophenyl)-4,5-dihydro-1H-pyrazol-1-yl)(4-(5-fluoro-4-(1-(2-methoxyethyl)-3,5-dimethyl-1H-pyrazol-4-yl)pyrimidin-2-yl)piperazin-1-yl)methanone] here?
Answer: 0.1 to 100 nM

Question: With NC(=O)c1c[nH]c(-c2ccnc(N3CCN(C(=O)N4N=CC[C@H]4c4cc(F)cc(F)c4)CC3)n2)c1 [Compound 10, (S)-5-(2-(4-(5-(3,5-difluorophenyl)-4,5-dihydro-1H-pyrazole-1-carbonyl)piperazin-1-yl)pyrimidin-4-yl)-1H-pyrrole-3-carboxamide] as the compound, how does the EC50 read?
Answer: 0.1 to 100 nM

Question: For N#Cc1cc(F)cc([C@@H]2CC=NN2C(=O)N2CCN(c3ncc(F)c(-c4ccc(O)nc4)n3)CC2)c1 [Compound 48, (S)-3-fluoro-5-(1-(4-(5-fluoro-4-(6-hydroxypyridin-3-yl)pyrimidin-2-yl)piperazine-1-carbonyl)-4,5-dihydro-1H-pyrazol-5-yl)benzonitrile], which EC50 is on record?
Answer: 0.1 to 100 nM

Question: For O=C(N1CCN(c2ncc(F)c(-c3cc[nH]n3)n2)CC1)N1N=CC[C@H]1c1cc(F)cc(F)c1 [Compound 7, (S)-(5-(3,5-difluorophenyl)-4,5-dihydro-1H-pyrazol-1-yl)(4-(5-fluoro-4-(1H-pyrazol-3-yl)pyrimidin-2-yl)piperazin-1-yl)methanone], which EC50 is on record?
Answer: 0.1 to 100 nM

Same assay, conditions: Homo sapiens; HT-29 cells, TNF-α 10 ng/ml + SMAC mimetic 6 μM + zVAD-FMK 10 μM, 20 hours; geometric mean, 10 points in duplicate; read-out: EC50 (Cell activity; Necrosis/Necroptosis Inhibitory Activity, Compounds 143-323)

Question: Which EC50 does the source give for CC(=O)Nc1c(C)nn(-c2nc(N3CCN(C(=O)N4N=CC[C@H]4c4cc(F)cc(F)c4)CC3)ncc2F)c1C [Compound 193, (S)—N-(1-(2-(4-(5-(3,5-difluorophenyl)-4,5-dihydro-1H-pyrazole-1-carbonyl)piperazin-1-yl)-5-fluoropyrimidin-4-yl)-3,5-dimethyl-1H-pyrazol-4-yl)acetamide] here?
Answer: 0.1 to 100 nM

Question: For Cc1csc(C2CC=NN2C(=O)N2CCN(c3nc(-c4c(C)cnn4C)ncc3F)CC2)n1 (centres unmarked) [Compound 161, (4-(2-(1,4-dimethyl-1H-pyrazol-5-yl)-5-fluoropyrimidin-4-yl)piperazinyl)(5-(4-methylthiazol-2-yl)-4,5-dihydro-1H-pyrazol-1-yl)methanone], which EC50 is on record?
Answer: 0.1 to 100 nM

Question: With Cc1cc(C(F)(F)F)nn1-c1nc(N2CCN(C(=O)N3N=CC[C@H]3c3cc(F)cc(F)c3)CC2)ncc1F [Compound 196, (S)-(5-(3,5-difluorophenyl)-4,5-dihydro-1H-pyrazol-1-yl)(4-(5-fluoro-4-(5-methyl-3-(trifluoromethyl)-1H-pyrazol-1-yl)pyrimidin-2-yl)piperazin-1-yl)methanone] as the compound, how does the EC50 read?
Answer: 0.1 to 100 nM

Question: Which EC50 does the source give for Cc1nc(C)n(-c2nc(N3CCN(C(=O)N4N=CCC4c4nccs4)CC3)ncc2F)n1 (centres unmarked) [Compound 217, (4-(4-(3,5-dimethyl-1H-1,2,4-triazol-1-yl)-5-fluoropyrimidin-2-yl)piperazin-1-yl)(5-(thiazol-2-yl)-4,5-dihydro-1H-pyrazol-1-yl)methanone] here?
Answer: 0.1 to 100 nM

Question: For Cc1cnn(C)c1-c1nc(N2CCN(C(=O)N3N=CC[C@H]3c3cc(F)cc(F)c3)CC2)sc1CO [Compound 267, (S)-(5-(3,5-difluorophenyl)-4,5-dihydro-1H-pyrazol-1-yl)(4-(4-(1,4-dimethyl-1H-pyrazol-5-yl)-5-(hydroxymethyl)thiazol-2-yl)piperazin-1-yl)methanone], which EC50 is on record?
Answer: 1000 to 10000 nM

Question: How did the EC50 turn out when Cc1nc(C)n(-c2nc(N3CCN(C(=O)N4N=CCC4c4ncccc4Cl)CC3)ncc2F)n1 (centres unmarked) [Compound 189, (5-(3-chloropyridin-2-yl)-4,5-dihydro-1H-pyrazol-1-yl)(4-(4-(3,5-dimethyl-1H-1,2,4-triazol-1-yl)-5-fluoropyrimidin-2-yl)piperazin-1-yl)methanone] was run?
Answer: 0.1 to 100 nM

Question: Cc1nnc(-c2nc(N3CCN(C(=O)N4N=CC[C@H]4c4cc(F)cc(C#N)c4)CC3)ncc2F)n1C [Compound 179, (S)-3-(1-(4-(4-(4,5-dimethyl-4H-1,2,4-triazol-3-yl)-5-fluoropyrimidin-2-yl)piperazine-1-carbonyl)-4,5-dihydro-1H-pyrazol-5-yl)-5-fluorobenzonitrile] was tested. Which EC50 did it give?
Answer: 0.1 to 100 nM

Question: With O=C(N1CCN(c2ncc(F)c(-n3cnc(C(F)(F)F)n3)n2)CC1)N1N=CC[C@H]1c1cncc(F)c1 [Compound 314, (S)-(4-(5-fluoro-4-(3-(trifluoromethyl)-1H-1,2,4-triazol-1-yl)pyrimidin-2-yl)piperazin-1-yl)(5-(5-fluoropyridin-3-yl)-4,5-dihydro-1H-pyrazol-1-yl)methanone] as the compound, how does the EC50 read?
Answer: 0.1 to 100 nM

Question: With O=C(N1CCN(c2ncc(F)c(-n3cnc(C(F)(F)F)n3)n2)CC1)N1N=CC[C@H]1c1cc(F)cc(F)c1 [Compound 305, (S)-(5-(3,5-difluorophenyl)-4,5-dihydro-1H-pyrazol-1-yl)(4-(5-fluoro-4-(3-(trifluoromethyl)-1H-1,2,4-triazol-1-yl)pyrimidin-2-yl)piperazin-1-yl)methanone] as the compound, how does the EC50 read?
Answer: 0.1 to 100 nM

Question: For Cc1nc(C)n(-c2nc(N3CCN(C(=O)N4N=CCC4c4ncc(C)s4)CC3)ncc2F)n1 (centres unmarked) [Compound 216, (4-(4-(3,5-dimethyl-1H-1,2,4-triazol-1-yl)-5-fluoropyrimidin-2-yl)piperazin-1-yl)(5-(5-methylthiazol-2-yl)-4,5-dihydro-1H-pyrazol-1-yl)methanone], which EC50 is on record?
Answer: 0.1 to 100 nM
